Columns and labels:
[1] = system: K-562; test: cells; format: cell-based; settings: Homo sapiens, K562, K-562; for GI50: read-out: Log10 GI50 (converted)
[2] = system: RPMI-8226; test: cells; format: cell-based; settings: Homo sapiens
[3] = system: COLO 205; test: NCI 60 cell line screen (SRB), colon cancer; format: cell-based; settings: Homo sapiens; for CC50: read-out: Log10 LC50 (converted); for IC (TGI): read-out: Log10 TGI (converted)
[4] = system: MALME-3M; test: cells; format: cell-based; settings: Homo sapiens; for IC (TGI): read-out: Log10 TGI (converted)
[5] = system: SK-MEL-28; test: cells; format: cell-based; settings: Homo sapiens
[6] = system: UACC-62; test: cells; format: cell-based; settings: Homo sapiens; for CC50: read-out: Log10 LC50 (converted)
[7] = system: OVCAR-5; test: NCI 60 cell line screen (SRB), ovarian cancer; format: cell-based; settings: Homo sapiens; for CC50: read-out: Log10 LC50 (converted); for IC (TGI): read-out: Log10 TGI (converted)
[8] = system: SN12C; test: cells; format: cell-based; settings: Homo sapiens; for GI50: read-out: Log10 GI50 (converted); for CC50: read-out: Log10 LC50 (converted)
[9] = system: HS 578T; test: cells; format: cell-based; settings: Homo sapiens; for CC50: read-out: Log10 LC50 (converted); for IC (TGI): read-out: Log10 TGI (converted)
[10] = system: chloroquine-sensitive P. falciparum (NF54); test: In vitro antimalarial activity ([3H]hypoxanthine incorporation); format: cell-based
Protocol: Activity was determined by measuring the incorporation of [^3 H]hypoxanthine, by the methods of Desjardins and Milhouse, with the following modofications, see […].; Haynes, […]. Antimicrob. Agents Chemother., 16:710 (1979); Milhous, W. K.; Weatherly, […].; Antimicrob. Agents Chemother., 27: 525 (1985). […] Parasitemia was maintained at 0.05-3% and doubling time at approximately 15 hours by twice weekly change of medium and replenishment with fresh erythrocytes. […] Sigma-Aldrich #27,043-1). DMSO solutions were diluted 500-fold in medium, serially diluted in 0.2% DMSO in medium (to maintain constant solvent concentration), then 100 μL aliquots were pipetted into microtiter plate wells (Costar 3595). […] Plates included at least 8 wells of no drug controls (4 with and 4 without DMSO) and 4 wells of uninfected erythrocytes. […] Cells were harvested (Brandel MB-48R) onto GF-C glass filters (Brandel). The filters were washed five times with 3 mL water per sample spot, dried under a heat lamp, and counted (Beckman Model LS-6500) in scintillation cocktail (ICN Cytoscint). Decays per minute (dpm) values were downloaded and analyzed (Power MFacintosh 7200/90; Microsoft Excel 5.0), to yield the mean and standard deviation at each drug concentration.

[11] = system: 60 cell line panel; settings: cell line panels of 60 lines; cited from earlier work
[12] = system: P. vivax and P. falciparum; settings: cited from earlier work
[13] = system: P. falciparum; settings: two Hanian strains; cited from earlier work
[14] = system: P. falciparum; settings: Camp (chloroquine-susceptible) and Smith (chloroquine-resistant) strains; cited from earlier work
[15] = cited from earlier work
[16] = system: CCRF-CEM; test: NCI 60 cell line screen (SRB), leukemia; format: cell-based; settings: Homo sapiens; for IC (TGI): read-out: Log10 TGI (converted)
[17] = system: NCI-H322M; test: cells; format: cell-based; settings: Homo sapiens, read-out: Log10 TGI
[18] = system: NCI-H522; test: cells; format: cell-based; settings: Homo sapiens; for IC (TGI): read-out: Log10 TGI (converted)
[19] = system: HCC-2998; test: NCI 60 cell line screen (SRB), colon cancer; format: cell-based; settings: Homo sapiens
[20] = system: SF-268; test: NCI 60 cell line screen (SRB), CNS cancer; format: cell-based; settings: Homo sapiens; for GI50: read-out: Log10 GI50 (converted)
[21] = system: SF-539; test: cells; format: cell-based; settings: Homo sapiens; for GI50: read-out: Log10 GI50 (converted); for IC (TGI): read-out: Log10 TGI (converted)
[22] = system: SK-MEL-5; test: NCI 60 cell line screen (SRB), melanoma; format: cell-based; settings: Homo sapiens
[23] = system: OVCAR-3; test: NCI 60 cell line screen (SRB), ovarian cancer; format: cell-based; settings: Homo sapiens; for GI50: read-out: Log10 GI50 (converted)
[24] = system: 786-0; test: cells; format: cell-based; settings: Homo sapiens; for IC (TGI): read-out: Log10 TGI (converted)
[25] = system: MCF7/ADR-RES; test: cells; format: cell-based; settings: Homo sapiens; for GI50: read-out: Log10 GI50 (converted)
[26] = system: MDA-MB-435; test: cells; format: cell-based; settings: Homo sapiens; for IC (TGI): read-out: Log10 TGI (converted)
[27] = system: CAKI-1; test: NCI 60 cell line screen (SRB), renal cancer; settings: Homo sapiens; for CC50: CAKI-1, read-out: Log10 LC50 (converted)
[28] = system: SF-295; test: cells; format: cell-based; settings: Homo sapiens
[29] = system: SK-OV-3; test: NCI 60 cell line screen (SRB), ovarian cancer; format: cell-based; settings: Homo sapiens
[30] = system: DU-145; test: cells; format: cell-based; settings: Homo sapiens
[31] = read-out: Log10 LC50 (converted)
[32] = read-out: Log10 TGI (converted)
[33] = read-out: Log10 GI50 (converted)

SMILES: C[C@@H]1CC[C@H]2[C@@H](C)C(=O)O[C@@H]3O[C@@]4(C)CC[C@@H]1[C@]32OO4 [Artemisinin]
- GI50 [1]: 46.8 µM
- CC50 [1, 31]: > 100 µM
- CC50 [2, 31]: > 100 µM
- IC (TGI) ([2]; read-out: Log10 TGI): > 100 µM
- CC50 [3]: > 100 µM
- IC (TGI) [3]: > 100 µM
- CC50 [4, 31]: > 100 µM
- IC (TGI) [4]: 87.1 µM
- CC50 [5, 31]: > 100 µM
- IC (TGI) ([5]; read-out: Log10 TGI): > 100 µM
- CC50 [6]: > 100 µM
- CC50 [7]: > 100 µM
- IC (TGI) [7]: > 100 µM
- GI50 [8]: 61.7 µM
- CC50 [8]: > 100 µM
- CC50 [9]: > 100 µM
- IC (TGI) [9]: > 100 µM
- IC50 ([10]; Plasmodium falciparum, NF54): 0.01 µM
- anticancer activity [11]: very little anticancer activity
- clinical cure ([12]; 2099 cases, P. vivax and P. falciparum about 3:1): clinical cure of all patients
- suppression of parasitemias ([12]; P. vivax and P. falciparum): effective at suppressing the parasitemias
- potency in vitro compared with chloroquine [13]: comparable to that of chloroquine
- potency in vitro compared with mefloquine [14]: comparable
- solubility in water [15]: insolubility in water

SMILES: C[C@H]1[C@@H](F)O[C@@H]2O[C@@]3(C)CC[C@H]4[C@H](C)CC[C@@H]1[C@@]24OO3 [Compound VI, 10β-Fluorodeoxoartemisinin]
- GI50 ([16]; CCRP-CEM, read-out: Log10 GI50 (converted)): 0.562 µM
- IC (TGI) [16]: 53.7 µM
- GI50 [1]: 0.316 µM
- IC (TGI) [1, 32]: 12.6 µM
- IC (TGI) [17]: > 100 µM
- GI50 [18, 33]: 0.851 µM
- CC50 [18, 31]: 64.6 µM
- IC (TGI) [18]: 16.6 µM
- GI50 [19, 33]: 14.5 µM
- IC (TGI) [19, 32]: 12.9 µM
- GI50 [20]: 13.8 µM
- GI50 [21]: 14.1 µM
- IC (TGI) [21]: 40.7 µM
- GI50 [5, 33]: 17.8 µM
- CC50 [22, 31]: 61.7 µM
- IC (TGI) [22, 32]: 13.5 µM
- GI50 [23]: 2.88 µM
- GI50 [24, 33]: 1.55 µM
- IC (TGI) [24]: 14.8 µM
- GI50 [25]: 3.55 µM
- GI50 [26, 33]: 0.692 µM
- CC50 [26, 31]: 34.7 µM
- IC (TGI) [26]: 7.24 µM
- GI50 ([27]; CAKI-1, read-out: Log10 GI50 (converted)): 724 µM
- CC50 [27]: 47.9 µM

SMILES: C[C@H]1[C@@H](CC(=O)c2ccc(C(=O)C[C@H]3O[C@@H]4O[C@@]5(C)CC[C@H]6[C@H](C)CC[C@@H]([C@H]3C)[C@@]46OO5)cc2)O[C@@H]2O[C@@]3(C)CC[C@H]4[C@H](C)CC[C@@H]1[C@@]24OO3 [Dimer 21]
- IC (TGI) [16]: 45700 µM
- IC (TGI) [18]: 28.2 µM
- CC50 [3]: 0.0759 µM
- IC (TGI) [3]: 0.0407 µM
- GI50 [20]: 0.0631 µM
- IC (TGI) [20, 32]: 79.4 µM
- GI50 [28, 33]: 4.79 µM
- CC50 [28, 31]: 77.6 µM
- IC (TGI) [28, 32]: 25.1 µM
- GI50 [21]: 0.0166 µM
- CC50 [21, 31]: 38 µM
- IC (TGI) [21]: 14.5 µM
- GI50 [4, 33]: 0.0468 µM
- IC (TGI) [4]: 28.2 µM
- GI50 [6, 33]: 0.0724 µM
- CC50 [6]: 95.5 µM
- IC (TGI) [6, 32]: 27.5 µM
- GI50 [23]: 0.692 µM
- IC (TGI) [23, 32]: 28.2 µM
- CC50 [7]: 60.3 µM
- IC (TGI) [7]: 14.5 µM
- GI50 [29, 33]: 263 µM
- CC50 [29, 31]: 52.5 µM
- IC (TGI) [24]: 14.8 µM
- GI50 [8]: 0.0105 µM
- CC50 [8]: 85.1 µM
- IC (TGI) [8, 32]: 12.3 µM
- GI50 [30, 33]: 6.31 µM
- IC (TGI) [30, 32]: 31.6 µM
- GI50 [25]: 0.0105 µM
- CC50 [25, 31]: 79.4 µM
- IC (TGI) [25, 32]: 14.1 µM
- CC50 [9]: 72.4 µM
- IC (TGI) [9]: 15.1 µM
- IC (TGI) [26]: 25.1 µM
- IC50 compared with artemisinin ([10]; in words): lower than that of artemisinin
- CC50 [27]: 27.5 µM
- IC (TGI) ([27]; CAKI-1, read-out: Log10 TGI): 0.0891 µM

Source: patent publication US6156790A, “C-10 carbon-substituted artemisinin-like trioxane compounds having antimalarial, antiproliferative and antitumor activities” (priority 1997, dated 2000)
